Columns and labels:
[1] = system: TNF-α secretion, peripheral blood mononuclear cells (PBMCs); assay: Suppression of TNF-α secretion in LPS-treated PBMCs (ELISA); type: cell-based; conditions: PBMC, 100 ng/ml LPS, 24 hours, read-out: TNF-α, % inhibition degree
Method: (§1) Peripheral blood mononuclear cells (PBMCs) isolated from whole blood were distributed in a 96-well plate. TNF-α was aliquoted at a density of 1×10^5 cells/well, IFN-α was aliquoted at a density of 2×10^5 cells/well, and TNF-α and IFN-α were treated with a compound diluted to 4-fold of a final concentration and totally cultured for 30 minutes. TNF-α was treated with 100 ng/ml lipopolysaccharide (LPS), IFN-α was treated with 500 nM ODN2216 (CpGTLR9 stimulator), and TNF-α and IFN-α were further cultured for 24 hours and 72 hours, respectively. An enzyme-linked immunosorbent assay (ELISA) was performed on TNF-α and IFN-α using an ELISA kit manufactured by BD Biosciences and an ELISA kit manufactured by PBL Assay Science, Inc., respectively. A cell supernatant and a standard drug were put into the ELISA plates and reacted for 2 hours. The plates were washed and a measurement antibody and streptavidin-HRP were sequentially added thereto. After the plates were washed, a TMB substrate was added thereto and reacted in a dark place. The reaction was stopped by adding a stop solution thereto, and the absorbance at 450 nm and 570 nm was measured using an absorber (OPTIMax tunable microplate reader, molecular devices). The experimental results are shown in [Table 2].

IRAK4 enzyme = molecular target: T1, IRAK4 enzyme (Homo sapiens, UniProt Q9NWZ3); assay: IRAK4 enzyme inhibition degree (bead-based kinase assay, peptide substrate BMKC-2, 100 μM ATP); type: biochemical; conditions: for inhibition at 1 µM: compound 1 μM
T1 sequence (Q9NWZ3 1-460): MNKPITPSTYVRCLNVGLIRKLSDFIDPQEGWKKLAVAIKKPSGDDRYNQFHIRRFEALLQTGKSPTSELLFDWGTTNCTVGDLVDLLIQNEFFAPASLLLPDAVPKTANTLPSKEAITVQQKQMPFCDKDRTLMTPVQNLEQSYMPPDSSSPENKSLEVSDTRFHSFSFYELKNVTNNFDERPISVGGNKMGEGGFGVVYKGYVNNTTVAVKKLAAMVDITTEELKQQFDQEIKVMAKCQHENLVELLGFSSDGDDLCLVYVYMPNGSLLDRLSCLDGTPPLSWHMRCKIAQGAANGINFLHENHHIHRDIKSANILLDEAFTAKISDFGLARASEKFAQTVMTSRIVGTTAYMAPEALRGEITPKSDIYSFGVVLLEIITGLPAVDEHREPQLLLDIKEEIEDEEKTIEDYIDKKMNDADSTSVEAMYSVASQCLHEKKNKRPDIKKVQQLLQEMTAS
Method: 2.5 μl of a compound diluted to 4-fold of a final concentration was put into a 384-well white plate (low volume). 2.5 μl of 0.4 ng/μl IRAK4 enzyme was added thereto, and the resulting mixture was totally reacted for 10 minutes. 5 μl of a mixed liquid of a 6 μM peptide substrate (BMKC-2) and 100 μM ATP was added thereto, the resulting mixture was reacted at room temperature for 60 minutes, then 2.5 μl of 10 mM EDTA was added thereto, and the resulting mixture was reacted again for 10 minutes. 40 nM anti-phospho Thr antibody was aliquoted to 2.5 μl each, 5 μl of a mixed solution of a 160 μl/ml acceptor bead and a donor bead was added thereto, and then the resulting mixture was reacted at room temperature for 60 minutes. Fluorescence signals were measured using a bead experimental apparatus (Fusion alpha-FP Microplate Reader, Perkin Elmer Inc.).
From the detected signal, an activity inhibition rate [% inhibition degree=(the average value of a compound−the average value of a negative control)/(the average value of a positive control−the average value of a negative control)×100] was calculated, and is shown in [Table 1]. Further, a % inhibition degree of the compound at each concentration was obtained, and then a 50% inhibition concentration (IC50 value) was analyzed by a non-linear regression analysis.

[2] = system: NF-κB promoter, THP1-Lucia™ NF-κB cell line; assay: NF-κB promoter inhibition, THP1-Lucia NF-κB cell line; type: cell-based; conditions: 100 ng/ml LPS, 24 hours, read-out: NF-κB, % inhibition degree
Method: (§2) A THP1-Lucia™ NF-κB cell line (Invivogen) was used in an NF-κB inhibition experiment, and a THP1-Lucia™ ISG cell line was used in an ISG inhibition experiment. In the NF-κB inhibition experiment, cells were planted at a density of 1×10^4 cells/well in a 96-well plate, and in the ISG inhibition experiment, cells were planted at a density of 2×10^4 cells/well in a 96-well plate. The cells were treated with a compound diluted to 4-fold of a final concentration, and totally cultured for 30 minutes. NF-κB was treated with 100 ng/ml lipopolysaccharide (LPS), ISG was treated with a stimulator of 1 μg/ml Poly(dA:dT)/LyoVec, and NF-κB and ISG were cultured for 24 hours. 10 μl of a cell supernatant was taken and transferred to a 96-well plate. 50 μl of a Quanti-luc solution was aliquoted using an automatic aliquoter of a measurer (Envision Multilabel Plate Reader, Perkin Elmer, Inc.), and light emission signals were measured.

[3] = system: IFN-α secretion, peripheral blood mononuclear cells (PBMCs); assay: Suppression of IFN-α secretion in ODN2216-treated PBMCs (ELISA); type: cell-based; conditions: PBMC, 500 nM ODN2216, 72 hours, read-out: IFN-α, % inhibition degree
Method: as §1

[4] = system: ISG promoter, THP1-Lucia™ ISG cell line; assay: ISG promoter inhibition, THP1-Lucia ISG cell line; type: cell-based; conditions: 1 μg/ml Poly(dA:dT)/LyoVec, 24 hours, read-out: ISG, % inhibition degree
Method: as §2

| Structure (SMILES) | inhibition at 0.1 µM [1] [%] | inhibition at 1 µM [1] [%] | IC50 (IRAK4 enzyme) [nM] | inhibition at 1 µM (IRAK4 enzyme) [%] | inhibition at 0.1 µM [2] [%] | inhibition at 1 µM [2] [%] | inhibition at 0.1 µM [3] [%] | inhibition at 1 µM [3] [%] | inhibition at 0.1 µM [4] [%] | inhibition at 1 µM [4] [%] |
| --- | --- | --- | --- | --- | --- | --- | --- | --- | --- | --- |
| N#Cc1cccc(-c2ccc3[nH]c4ncnc(N[C@H]5CC[C@H](N6CCOCC6)CC5)c4c3c2)c1 [Compound 6aak, 3-(4-((trans-4-morpholinocyclohexyl)amino)-9H-pyrimido[4,5-b]indol-6-yl) benzonitrile] | 16 | 70 | 104 | 98 | < 1 | 37 | 53 | 98 | < 1 | 30 |
| c1cc(-c2ccc3[nH]c4ncnc(Nc5ccc(N6CCNCC6)cc5)c4c3c2)ccn1 [Compound 6agba, N-(4-(piperazin-1-yl)phenyl)-6-(pyridin-4-yl)-9H-pyrimido[4,5-b]indole-4-amine] | 26 | 87 | 1190 | 42 | < 1 | 6 | 56 | 74 | 6 | 8 |
| O=[N+]([O-])c1cccc(-c2ccc3[nH]c4ncnc(N[C@H]5CC[C@H](N6CCOCC6)CC5)c4c3c2)c1 [Compound 6aai, N-(trans-4-morpholinocyclohexyl)-6-(3-nitrophenyl)-9H-pyrimido[4,5-b]indole-4-amine] | 13 | 62 | 67.6 | 98 | 6 | 36 | 32 | 87 | 9 | 41 |
| Cn1cc(-c2ccc3[nH]c4ncnc(N[C@H]5CC[C@H](N6CCOCC6)CC5)c4c3c2)cn1 [Compound 6aaa, 6-(1-methyl-1H-pyrazol-4-yl)-N-(trans-4-morpholinocyclohexyl)-9H-pyrimido[4,5-b]indole-4-amine] | 10.5 | 42 | 28 | 100 | 23 | 71 | 20 | 21 | 17 | 55 |
| COc1ccc(-c2ccc3[nH]c4ncnc(N[C@H]5CC[C@H](N6CCOCC6)CC5)c4c3c2)cn1 [Compound 6aah, 6-(6-methoxypyridin-3-yl)-N-(trans-4-morpholinocyclohexyl)-9H-pyrimido[4,5-b]indole-4-amine] | 16 | 67 | 40 | 100 | 19 | 63 | 15 | 79 | 10 | 47 |
| Fc1ccc(-c2ccc3[nH]c4ncnc(N[C@H]5CC[C@H](N6CCOCC6)CC5)c4c3c2)cc1 [Compound 6aan, 6-(4-fluorophenyl)-N-(trans-4-morpholinocyclohexyl)-9H-pyrimido[4,5-b]indole-4-amine] | 9 | 32 | 61 | 82 | < 1 | 28 | 28 | 71 | < 1 | 6 |
| CCOC(=O)c1ccc2[nH]c3ncnc(N[C@H]4CC[C@H](N(C)C)CC4)c3c2c1 [Compound 5bb, ethyl 4-((trans-4-(dimethylamino)cyclohexyl)amino)-9H-pyrimido[4,5-b]indole-6-carboxylate] | 7.3 | 47 | 21 | 83 | 58 | 92 | 27.3 | 90 | 43 | 73 |
| Cn1cc(-c2ccc3[nH]c4ncnc(Nc5ccc(N6CCNCC6)cc5)c4c3c2)cn1 [Compound 6agaa, 6-(1-methyl-1H-pyrazol-4-yl)-N-(4-(piperazin-1-yl)phenyl)-9H-pyrimido[4,5-b]indole-4-amine] | 17 | 27 | 1140 | 36 | < 1 | 24 | 39 | 65 | 7 | 16 |
| Fc1cc(F)cc(-c2ccc3[nH]c4ncnc(N[C@H]5CC[C@H](N6CCOCC6)CC5)c4c3c2)c1 [Compound 6aal, 6-(3,5-difluorophenyl)-N-(trans-4-morpholinocyclohexyl)-9H-pyrimido[4,5-b]indole-4-amine] | 13 | 57 | 151 | 99 | < 1 | 15 | 18 | 70 | 1 | 17 |
| c1cc(-c2ccc3[nH]c4ncnc(N[C@H]5CC[C@H](N6CCOCC6)CC5)c4c3c2)ccn1 [Compound 6aab, N-(trans-4-morpholinocyclohexyl)-6-(pyridin-4-yl)-9H-pyrimido[4,5-b]indole-4-amine] | 44 | 114 | 18.4 | 100 | 8 | 61 | 31 | 94 | 11 | 54 |
| c1cc(-c2ccc3c(c2)[nH]c2ncnc(N[C@H]4CC[C@H](N5CCOCC5)CC4)c23)ccn1 [Compound 6caa, N-(trans-4-morpholinocyclohexyl)-7-(pyridin-4-yl)-9H-pyrimido[4,5-b]indole-4-amine] | 5 | 40 | 1360 | 50 | 5 | 10 | 40 | 60 | 1 | 10 |

Reference: patent publication US12378250B2, “Tricyclic compound as IRAK4 inhibitor” (KOREA RESEARCH INSTITUTE OF CHEMICAL TECHNOLOGY, priority 2018, dated 2025)
